Assay [1] addresses acetyl choline esterase (Homo sapiens, UniProt P22303). To be noted: WO 2013/168090 [10]; cited from earlier work.
Assay [2] relates to mice subjected to closed head injury (CHI). Description: Barnes maze (BM) acquisition, recall and exploration strategies after CHI. The class given is in vivo. Particulars: 2 weeks after the trauma, 3 days after the last treatment; 125 mg/kg or 50 mg/kg (both doses), gavage, 9 treatments. Here is the method:
At 1 h after CHI, the NSS is evaluated.
• The BM test is based on the instinct of the mouse to hide when exposed to environmental disturbances and is used to test spatial learning and memory. The maze consists of an elevated circular platform with holes in the perimeter and a small dark hidden goal box. Bright light and aversive noise (85 dB) force the animals to escape from the open platform surface to find the hole under which the dark chamber (21×22×21 cm), “target goal box,” is located. Visual cues of different colors and shapes are placed around the room. The mouse was placed under a cylindrical black start chamber at the center of the maze. […] For the probe trial, the latency to reaching the escape box first are recorded. • The Barnes maze test was performed: • 1) Between days 14-17 (2 weeks) plus a recall test on days 18 and 25 after injury, for a total round of 6. • 2) Between days 54-57 (2 months) plus a recall test on days 58 and 65 after injury for a total round of 2. • 3) Between days 183-186 (6 months) plus a recall test on days 187 and 194 after injury for a total round of 2. • 4) Between days 277-280 (9 months) plus a recall test on days 281 and 288 after injury for a total round of 1. • The captured videos were analyzed with Ethovision XP10 software (Noldus, The Netherlands) for later evaluation of the strategies used to locate the target box. […]

Chain of acetyl choline esterase (P22303 32-614): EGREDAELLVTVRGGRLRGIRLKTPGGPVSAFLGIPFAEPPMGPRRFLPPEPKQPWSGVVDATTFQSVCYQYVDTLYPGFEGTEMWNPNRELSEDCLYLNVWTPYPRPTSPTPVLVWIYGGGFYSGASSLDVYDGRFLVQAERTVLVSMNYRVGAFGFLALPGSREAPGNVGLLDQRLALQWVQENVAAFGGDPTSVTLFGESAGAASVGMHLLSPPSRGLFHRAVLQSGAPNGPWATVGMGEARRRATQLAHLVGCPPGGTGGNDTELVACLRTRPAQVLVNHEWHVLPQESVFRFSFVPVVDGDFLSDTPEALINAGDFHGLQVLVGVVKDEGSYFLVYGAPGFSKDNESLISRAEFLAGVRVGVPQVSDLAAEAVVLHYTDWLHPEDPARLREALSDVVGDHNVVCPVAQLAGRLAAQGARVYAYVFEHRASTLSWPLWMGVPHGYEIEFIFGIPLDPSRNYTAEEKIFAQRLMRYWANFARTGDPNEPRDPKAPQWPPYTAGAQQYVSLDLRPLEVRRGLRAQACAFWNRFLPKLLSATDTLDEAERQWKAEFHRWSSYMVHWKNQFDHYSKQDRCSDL

Turning to `CC(C)=CCC[C@H](C)CCO` [(S) (−) citronellol], in assay [1], the “Activity of the enzyme acetyl choline esterase in vitro” value is given as “inhibits”.

For the compound `CC(C)=CCCC(C)CCO` (centres unmarked) [Citronellol, citronellol], the “Barnes maze acquisition, learning curve” value in assay [2] is reported as “A significant improvement in the learning curve”.

The values are drawn from US20250073292A1, “PELARGONIUM GRAVEOLENS EXTRACT FOR THE TREATMENT OF TRAUMATIC BRAIN INJURIES” (priority 2021, published 2025).
